Measurements as given in publication PMC12794188, “Maternal–Fetal Transfer and Toxicokinetics of 2,2′,5,5′-Tetrachlorobiphenyl, [^14C]-PCB52, Following Intratracheal Administration” (Chemical Research in Toxicology, 2025).

Assay: Toxicokinetics and tissue disposition of total [14C] radioactivity after a single intratracheal dose of [14C]-PCB52 (0.157 mg/kg) in pregnant rats at GD 11±1
Format: in vivo, Sprague–Dawley rats
Method: Female Sprague–Dawley rats (8 weeks old) weighing 237–269.7 g (mean = 247.5 g) (Envigo RMS, LLC, Indianapolis, IN) were used for this study. All animal experiments were performed following the protocols evaluated and approved by the University of Iowa Institutional Animal Care and Use Committee (approval number 3091097). After arrival, the animals were acclimated for 7 days. The animals were housed in a light and temperature-controlled environment with ad libitum access to food and water during quarantine and throughout the study. Timed pregnancy was achieved by harem mating. , Briefly, one male and two female rats were placed together in the evening and checked for vaginal plug the following day. If vaginal plug was present, the male was removed from the breeding cage, and the gestation day 0 (GD 0), 0-day post coitum was assigned. Pregnancies were confirmed by ultrasound scan at GD 9. The dams were exposed at GD 11 (±1 day) to capture the period of early organogenesis and hormonal function, which falls within week 3 of human embryonic development. ,− On the day of the experiment, pregnant rats were intratracheally administered an average of 40 μg (range, 35–45 μg) of [^14C]-PCB52 in 100 μL of exposure solution. Although the dose used in this study exceeded the tolerable daily intake (TDI) of PCBs for healthy individuals, which is 1.6 μg per day for an individual weighing 80 kg, the use of higher acute doses has been established in toxicological studies intended for risk assessment. The intratracheal instillation method was chosen for administering [^14C]-PCB52 to represent inhalation exposures, capture exhaled concentration, and efficiently utilize the limited availability of the cost-intensive radiolabeled PCB52. , Although inhalation exposure would better represent real-world exposures to airborne LC-PCBs, it would not allow us to accurately measure the amount of PCB52 exhaled into the air after exposure and is experimentally infeasible. […] All intratracheal instillations were done under light anesthesia, achieved using a 4% isoflurane concentration via a Fortec vaporizer (Cyprane, Keighley, UK). The animals recovered from anesthesia within 1 min. Subsequently, the animals were housed within a cylindrical glass chamber measuring 2 L in volume, equipped with glass drainage mechanisms to facilitate urine collection and a metallic screen to segregate urine from feces (as in Figure S1). Air was drawn from the chamber at 6.0 L/min through a cartridge containing the XAD-2 polymeric resin to capture any exhaled [^14C]-PCB52. For periods longer than 24 h postexposure, exposed dams were placed in a metabolic cage, which was fitted with a cartridge containing XAD-2 to capture exhaled [^14C]-PCB52 as in other end points.
Maternal blood, urine, and feces samples were collected immediately before and at 0.21, 1.67, 12, 24, 48, and 96 h after lung dosing. The exposed dams were euthanized using 4% isoflurane, followed by cervical dislocation and exsanguination via a cardiac puncture. Euthanasia was consistently performed during the light cycle. Dams’ fur was wiped and analyzed for radioactivity. Using the retro-orbital blood collection method, 0.5–1.5 mL ([…] of an exposed pregnant rat’s body weight) of blood sample was collected from each of the dams until the individual dams were necropsied for whole-body tissue harvesting. At the end of the exposure period, the chamber’s interior walls were rinsed separately with water and acetone/hexane (25 – 45 mL) and wiped to measure residues. From the collected whole blood samples, 100 μL were aliquoted into three vials each, and the remaining blood was allowed to clot at room temperature before being centrifuged to yield serum. The placentas, developing fetuses, and whole-body tissue samples were harvested immediately before exposure and at 0.21, 1.67, 12, 24, and 96 h postexposure. […]

[1] = Mammary glands, 0.21 h post-exposure
[2] = Mammary glands, 1.67 h post-exposure
[3] = Mammary glands, 12 h post-exposure
[4] = Mammary glands, 24 h post-exposure
[5] = Mammary glands, 96 h post-exposure
[6] = Matter in duodenum, 0.21 h post-exposure
[7] = Matter in duodenum, 1.67 h post-exposure
[8] = Matter in duodenum, 12 h post-exposure
[9] = Matter in duodenum, 24 h post-exposure
[10] = Matter in duodenum, 96 h post-exposure
[11] = Matter in intestine, 0.21 h post-exposure
[12] = Matter in intestine, 1.67 h post-exposure
[13] = Matter in intestine, 12 h post-exposure
[14] = Matter in intestine, 24 h post-exposure
[15] = Matter in intestine, 96 h post-exposure
[16] = Matter in stomach, 0.21 h post-exposure
[17] = Matter in stomach, 1.67 h post-exposure
[18] = Matter in stomach, 12 h post-exposure
[19] = Matter in stomach, 24 h post-exposure
[20] = Matter in stomach, 96 h post-exposure

Structure (SMILES): Clc1ccc(Cl)c(-c2cc(Cl)ccc2Cl)c1 [PCB52, 2,2′,5,5′-Tetrachlorobiphenyl]
- Conc. per mg wet tissue (Esophagus, 96 h post-exposure): 0.25 dpm/mg
- Percent tissue distribution (Esophagus, 96 h post-exposure): 0.003%
- AUC_%Extrap (Fetus): 9.23%
- Terminal elimination half-life (t1/2) (Fetus): 34.78 h
- maternal serum exposure ratio (Fetus): 0.27
- AUC_%Extrap (Heart): 6.21%
- Terminal elimination half-life (t1/2) (Heart): 26.21 h
- Conc. per mg wet tissue (Heart, 96 h post-exposure): 0.61 dpm/mg
- AUC_%Extrap (Kidney): 13.09%
- Terminal elimination half-life (t1/2) (Kidney): 35.41 h
- AUC_%Extrap (Liver): 14.37%
- Terminal elimination half-life (t1/2) (Liver): 42.13 h
- Conc. per mg wet tissue (Liver, 0.21 h post-exposure): 55.77 dpm/mg
- Percent tissue distribution (Liver, 0.21 h post-exposure): 17.36%
- Conc. per mg wet tissue (Liver, 1.67 h post-exposure): 23.78 dpm/mg
- Percent tissue distribution (Liver, 1.67 h post-exposure): 6.58%
- Conc. per mg wet tissue (Liver, 12 h post-exposure): 11.09 dpm/mg
- Percent tissue distribution (Liver, 12 h post-exposure): 1.88%
- Conc. per mg wet tissue (Liver, 24 h post-exposure): 8.22 dpm/mg
- Percent tissue distribution (Liver, 24 h post-exposure): 1.63%
- Conc. per mg wet tissue (Liver, 96 h post-exposure): 1.16 dpm/mg
- Percent tissue distribution (Liver, 96 h post-exposure): 0.41%
- AUC_%Extrap (Lung): 4.66%
- Terminal elimination half-life (t1/2) (Lung): 22.05 h
- AUC_%Extrap (Mammary glands): 15.15%
- Terminal elimination half-life (t1/2) (Mammary glands): 34.16 h
- Conc. per mg wet tissue [1]: 5.39 dpm/mg
- Percent tissue distribution [1]: 0.28%
- Conc. per mg wet tissue [2]: 2.46 dpm/mg
- Percent tissue distribution [2]: 1.21%
- Conc. per mg wet tissue [3]: 0.74 dpm/mg
- Percent tissue distribution [3]: 1.18%
- Conc. per mg wet tissue [4]: 1.55 dpm/mg
- Percent tissue distribution [4]: 0.90%
- Conc. per mg wet tissue [5]: 1.67 dpm/mg
- Percent tissue distribution [5]: 0.18%
- AUC_%Extrap (Matter in Colon): 23.30%
- Terminal elimination half-life (t1/2) (Matter in Colon): 40.00 h
- AUC_%Extrap (Matter in amp colon): 13.09%
- Terminal elimination half-life (t1/2) (Matter in amp colon): 30.46 h
- AUC_%Extrap (Matter in duodenum): 26.66%
- Terminal elimination half-life (t1/2) (Matter in duodenum): 34.63 h
- Conc. per mg wet tissue [6]: 6.81 dpm/mg
- Percent tissue distribution [6]: 0.44%
- Conc. per mg wet tissue [7]: 51.01 dpm/mg
- Percent tissue distribution [7]: 0.57%
- Conc. per mg wet tissue [8]: 14.38 dpm/mg
- Percent tissue distribution [8]: 0.16%
- Conc. per mg wet tissue [9]: 16.72 dpm/mg
- Percent tissue distribution [9]: 0.19%
- Conc. per mg wet tissue [10]: 0.68 dpm/mg
- Percent tissue distribution [10]: 0.33%
- AUC_%Extrap (Matter in intestine): 2.18%
- Terminal elimination half-life (t1/2) (Matter in intestine): 17.41 h
- Conc. per mg wet tissue [11]: 10.76 dpm/mg
- Percent tissue distribution [11]: 0.70%
- Conc. per mg wet tissue [12]: 1.07 dpm/mg
- Percent tissue distribution [12]: 4.97%
- Conc. per mg wet tissue [13]: 0.75 dpm/mg
- Percent tissue distribution [13]: 1.53%
- Conc. per mg wet tissue [14]: 13.86 dpm/mg
- Percent tissue distribution [14]: 2.58%
- Conc. per mg wet tissue [15]: 0.41 dpm/mg
- Percent tissue distribution [15]: 0.02%
- AUC_%Extrap (Matter in stomach): 4.07%
- Terminal elimination half-life (t1/2) (Matter in stomach): 16.50 h
- Conc. per mg wet tissue [16]: 28.20 dpm/mg
- Percent tissue distribution [16]: 0.47%
- Conc. per mg wet tissue [17]: 5.71 dpm/mg
- Percent tissue distribution [17]: 0.06%
- Conc. per mg wet tissue [18]: 1.71 dpm/mg
- Percent tissue distribution [18]: 0.09%
- Conc. per mg wet tissue [19]: 1.57 dpm/mg
- Percent tissue distribution [19]: 1.52%
- Conc. per mg wet tissue [20]: 0.18 dpm/mg
- Percent tissue distribution [20]: 0.04%
- AUC_%Extrap (Muscle): 96.68%
- Terminal elimination half-life (t1/2) (Muscle): 1231.42 h
- Conc. per mg wet tissue (Muscle, 0.21 h post-exposure): 1.58 dpm/mg
- Percent tissue distribution (Muscle, 0.21 h post-exposure): 28.65%
- Conc. per mg wet tissue (Muscle, 96 h post-exposure): 1.58 dpm/mg
- AUC_%Extrap (Ovary): 25.93%
- Terminal elimination half-life (t1/2) (Ovary): 46.53 h
- Conc. per mg wet tissue (Ovary, 0.21 h post-exposure): 19.85 dpm/mg
